According to ChEMBL document CHEMBL3877302, “Design and Synthesis of a New Series of 4-Heteroarylamino-1'-azaspiro[oxazole-5,3'-bicyclo[2.2.2]octanes as α7 Nicotinic Receptor Agonists. 1. Development of Pharmacophore and Early Structure-Activity Relationship” (J Med Chem, 2016):
Active and inactive are the calls of the source. The calls are words filed in the database; no cut-off is given here.

Tests used:
[1] = target: T1, 5-hydroxytryptamine receptor 3A (Homo sapiens, UniProt P46098); assay: Antagonist activity at human 5-HT3A expressed in HEK293 cells assessed as reduction in acetylcholine-induced activity preincubated for 30 mins followed by addition of acetylcholine measured for 2 mins by Fluo-4AM dye based FLIPR assay; type: cell-based
T1 sequence (P46098 whole entry): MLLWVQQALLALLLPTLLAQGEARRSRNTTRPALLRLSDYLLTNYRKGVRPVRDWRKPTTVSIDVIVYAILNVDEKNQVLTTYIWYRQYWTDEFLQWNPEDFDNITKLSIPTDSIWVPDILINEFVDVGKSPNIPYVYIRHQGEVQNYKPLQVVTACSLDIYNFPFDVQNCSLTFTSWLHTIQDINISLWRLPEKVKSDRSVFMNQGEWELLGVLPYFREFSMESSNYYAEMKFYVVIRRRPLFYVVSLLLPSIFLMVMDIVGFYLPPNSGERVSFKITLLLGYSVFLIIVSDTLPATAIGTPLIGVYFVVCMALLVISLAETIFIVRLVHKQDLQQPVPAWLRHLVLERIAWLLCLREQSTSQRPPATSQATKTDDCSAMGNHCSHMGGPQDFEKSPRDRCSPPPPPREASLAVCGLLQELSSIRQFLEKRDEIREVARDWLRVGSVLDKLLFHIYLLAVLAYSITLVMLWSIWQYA

[2] = Selectivity ratio of IC50 for human 5-HT3A expressed in HEK293 cells to EC50 for rat alpha7 nAChR expressed in HEK293 cells co-expressing human RIC3; type: ADME, cell-based
[3] = target: T2, Neuronal acetylcholine receptor subunit alpha-7 (Rattus norvegicus, UniProt Q05941); assay: Partial agonist activity at rat alpha7 nAChR expressed in HEK293 cells co-expressing human RIC3 at holding potential of -90 mV by whole-cell voltage clamp technique; type: cell-based
T2 sequence (Q05941 whole entry): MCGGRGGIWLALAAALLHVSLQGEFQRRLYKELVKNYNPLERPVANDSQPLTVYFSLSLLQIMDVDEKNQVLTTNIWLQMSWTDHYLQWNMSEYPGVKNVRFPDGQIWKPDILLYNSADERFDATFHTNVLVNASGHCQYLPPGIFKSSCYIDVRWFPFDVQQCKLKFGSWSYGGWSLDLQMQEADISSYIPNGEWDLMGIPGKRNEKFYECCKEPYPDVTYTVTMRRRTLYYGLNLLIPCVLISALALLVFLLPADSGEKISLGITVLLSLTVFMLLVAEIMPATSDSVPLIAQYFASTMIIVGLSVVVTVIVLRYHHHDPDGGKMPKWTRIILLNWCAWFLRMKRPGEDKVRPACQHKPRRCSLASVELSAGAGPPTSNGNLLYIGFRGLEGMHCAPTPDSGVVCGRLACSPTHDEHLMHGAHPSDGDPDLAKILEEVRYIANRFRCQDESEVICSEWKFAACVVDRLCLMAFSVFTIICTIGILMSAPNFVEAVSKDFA

[4] = target: T2, Neuronal acetylcholine receptor subunit alpha-7; assay: Agonist activity at rat alpha7 nAChR expressed in HEK293 cells co-expressing human RIC3 measured for 2 mins by FLIPR assay; type: cell-based
[5] = Selectivity ratio of IC50 for human 5-HT3A expressed in HEK293 cells to EC50 for rat alpha1beta1deltaepsilon nAChR expressed in HEK293 cells; type: ADME, cell-based
[6] = Selectivity ratio of IC50 for human 5-HT3A expressed in HEK293 cells to EC50 for rat alpha3beta4 nAChR expressed in HEK293 cells; type: ADME, cell-based
[7] = Selectivity ratio of IC50 for human 5-HT3A expressed in HEK293 cells to EC50 for rat alpha4beta2 nAChR expressed in HEK293 cells; type: ADME, cell-based
[8] = Metabolic stability in human microsomes assessed as compound remaining measured after 10 mins; type: ADME, Microsome; conditions: read-out: Stability
[9] = Metabolic stability in mouse microsomes assessed as compound remaining measured after 10 mins; type: ADME, Microsome; conditions: read-out: Stability
[10] = Metabolic stability in rat microsomes assessed as compound remaining measured after 10 mins; type: ADME, Microsome; conditions: read-out: Stability
[11] = target: T2, Neuronal acetylcholine receptor subunit alpha-7; assay: Displacement of [125I]Tyr54-alpha-bungarotoxin from rat alpha7 nAChR expressed in HEK293 cell membranes co-expressing human RIC3 measured after 2 hrs by gamma counting method
[12] = target: Nicotinic acetylcholine receptor alpha-1/beta-1/delta/epsilon (Rattus norvegicus, UniProt P09660+P25108+P25109+P25110); assay: Agonist activity at rat alpha1beta1deltaepsilon nAChR expressed in HEK293 cells for 2 mins by FLIPR assay; type: cell-based
Chain of Nicotinic acetylcholine receptor alpha-1/beta-1/delta/epsilon (P25109 whole entry): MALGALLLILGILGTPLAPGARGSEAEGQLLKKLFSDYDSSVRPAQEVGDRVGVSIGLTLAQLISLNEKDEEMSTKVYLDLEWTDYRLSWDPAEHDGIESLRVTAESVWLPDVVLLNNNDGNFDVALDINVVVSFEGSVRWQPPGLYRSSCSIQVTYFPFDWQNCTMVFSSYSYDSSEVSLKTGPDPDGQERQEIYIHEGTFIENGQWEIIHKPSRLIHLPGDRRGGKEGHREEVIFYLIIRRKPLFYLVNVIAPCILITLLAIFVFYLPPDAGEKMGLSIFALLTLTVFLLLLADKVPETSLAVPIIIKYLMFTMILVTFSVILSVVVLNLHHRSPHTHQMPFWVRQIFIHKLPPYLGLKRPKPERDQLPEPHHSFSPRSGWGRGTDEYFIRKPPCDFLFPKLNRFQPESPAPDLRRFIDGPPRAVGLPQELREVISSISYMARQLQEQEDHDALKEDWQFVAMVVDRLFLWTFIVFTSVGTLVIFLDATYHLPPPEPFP
Chain of Nicotinic acetylcholine receptor alpha-1/beta-1/delta/epsilon (P25108 whole entry): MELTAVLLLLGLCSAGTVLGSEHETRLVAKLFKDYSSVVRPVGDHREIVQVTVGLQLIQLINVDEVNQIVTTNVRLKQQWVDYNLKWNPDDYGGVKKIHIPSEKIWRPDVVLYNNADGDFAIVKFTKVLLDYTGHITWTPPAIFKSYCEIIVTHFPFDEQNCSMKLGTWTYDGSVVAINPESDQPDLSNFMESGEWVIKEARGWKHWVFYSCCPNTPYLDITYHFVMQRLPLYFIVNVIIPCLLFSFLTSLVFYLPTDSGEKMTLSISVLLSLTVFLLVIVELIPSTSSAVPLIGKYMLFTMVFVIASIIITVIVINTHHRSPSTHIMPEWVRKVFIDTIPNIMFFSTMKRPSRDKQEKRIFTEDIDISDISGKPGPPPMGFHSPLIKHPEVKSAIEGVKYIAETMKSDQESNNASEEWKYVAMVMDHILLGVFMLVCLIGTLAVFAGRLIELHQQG
Chain of Nicotinic acetylcholine receptor alpha-1/beta-1/delta/epsilon (P25110 whole entry): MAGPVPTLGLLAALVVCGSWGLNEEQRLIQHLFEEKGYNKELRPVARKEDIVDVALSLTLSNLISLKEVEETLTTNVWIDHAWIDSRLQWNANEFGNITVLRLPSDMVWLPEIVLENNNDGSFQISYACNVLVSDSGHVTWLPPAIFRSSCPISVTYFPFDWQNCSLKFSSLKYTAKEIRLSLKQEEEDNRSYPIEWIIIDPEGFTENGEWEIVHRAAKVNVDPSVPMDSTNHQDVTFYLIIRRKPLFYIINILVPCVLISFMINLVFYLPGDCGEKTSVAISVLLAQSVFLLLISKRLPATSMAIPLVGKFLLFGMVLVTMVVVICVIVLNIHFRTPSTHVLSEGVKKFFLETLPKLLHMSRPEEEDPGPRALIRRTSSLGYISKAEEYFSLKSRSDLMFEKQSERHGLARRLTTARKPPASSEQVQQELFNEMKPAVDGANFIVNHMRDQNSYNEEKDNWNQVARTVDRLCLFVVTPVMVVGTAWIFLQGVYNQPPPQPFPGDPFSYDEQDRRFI
Chain of Nicotinic acetylcholine receptor alpha-1/beta-1/delta/epsilon (P09660 whole entry): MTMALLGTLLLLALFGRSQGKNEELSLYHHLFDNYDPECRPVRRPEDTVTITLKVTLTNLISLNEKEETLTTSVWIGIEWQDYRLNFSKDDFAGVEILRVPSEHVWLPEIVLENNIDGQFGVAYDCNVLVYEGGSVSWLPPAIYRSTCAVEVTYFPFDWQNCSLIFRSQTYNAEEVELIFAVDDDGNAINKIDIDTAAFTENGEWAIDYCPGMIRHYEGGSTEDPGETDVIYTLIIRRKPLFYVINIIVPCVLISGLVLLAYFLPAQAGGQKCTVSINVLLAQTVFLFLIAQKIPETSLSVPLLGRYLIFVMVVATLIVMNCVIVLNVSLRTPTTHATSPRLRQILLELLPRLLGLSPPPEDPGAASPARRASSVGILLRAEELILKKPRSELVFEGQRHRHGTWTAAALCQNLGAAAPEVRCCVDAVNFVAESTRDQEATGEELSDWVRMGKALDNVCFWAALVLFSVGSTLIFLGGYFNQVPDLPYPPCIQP

[13] = target: Neuronal acetylcholine receptor; alpha3/beta4 (Rattus norvegicus, UniProt P04757+P12392); assay: Agonist activity at rat alpha3beta4 nAChR expressed in HEK293 cells for 2 mins by FLIPR assay; type: cell-based
Chain of Neuronal acetylcholine receptor; alpha3/beta4 (P04757 whole entry): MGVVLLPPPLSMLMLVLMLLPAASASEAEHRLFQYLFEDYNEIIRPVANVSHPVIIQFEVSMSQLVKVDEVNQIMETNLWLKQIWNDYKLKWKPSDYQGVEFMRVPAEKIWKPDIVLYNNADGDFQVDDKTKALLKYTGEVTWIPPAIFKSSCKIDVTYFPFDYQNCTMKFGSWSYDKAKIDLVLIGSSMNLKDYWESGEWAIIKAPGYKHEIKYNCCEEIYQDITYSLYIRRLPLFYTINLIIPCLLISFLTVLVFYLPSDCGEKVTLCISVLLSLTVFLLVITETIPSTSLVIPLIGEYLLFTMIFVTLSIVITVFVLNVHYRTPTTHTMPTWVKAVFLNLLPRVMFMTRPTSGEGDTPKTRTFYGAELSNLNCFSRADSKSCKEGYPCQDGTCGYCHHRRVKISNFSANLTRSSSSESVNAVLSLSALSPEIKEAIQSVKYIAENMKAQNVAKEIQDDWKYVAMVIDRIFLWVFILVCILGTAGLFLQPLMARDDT
Chain of Neuronal acetylcholine receptor; alpha3/beta4 (P12392 whole entry): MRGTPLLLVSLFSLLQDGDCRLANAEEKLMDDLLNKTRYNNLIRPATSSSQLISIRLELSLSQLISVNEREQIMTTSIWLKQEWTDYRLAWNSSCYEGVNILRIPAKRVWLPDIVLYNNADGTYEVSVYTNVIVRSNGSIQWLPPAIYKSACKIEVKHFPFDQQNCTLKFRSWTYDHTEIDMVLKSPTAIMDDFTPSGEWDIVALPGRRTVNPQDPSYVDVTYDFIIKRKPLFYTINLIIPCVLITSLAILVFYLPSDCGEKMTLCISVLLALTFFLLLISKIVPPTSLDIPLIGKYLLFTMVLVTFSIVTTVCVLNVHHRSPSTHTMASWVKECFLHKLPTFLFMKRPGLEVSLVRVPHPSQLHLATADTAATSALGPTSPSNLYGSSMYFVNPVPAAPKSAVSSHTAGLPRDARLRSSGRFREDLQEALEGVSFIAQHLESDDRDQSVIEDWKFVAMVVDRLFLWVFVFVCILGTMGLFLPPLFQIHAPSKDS

[14] = target: Neuronal acetylcholine receptor; alpha4/beta2 (Rattus norvegicus, UniProt P09483+P12390); assay: Agonist activity at rat alpha4beta2 nAChR expressed in HEK293 cells for 2 mins by FLIPR assay; type: cell-based
[15] = Clearance in rat; type: ADME; conditions: in vivo
[16] = Oral bioavailability in rat at 10 mg/kg; type: ADME, organism-based; conditions: in vivo
[17] = Plasma concentration in Wistar rat at 10 mg/kg, sc measured after 30 mins by LC-MS/MS analysis; type: ADME, organism-based
[18] = Drug uptake in Wistar rat brain at 10 mg/kg, sc measured after 30 mins by LC-MS/MS analysis; type: ADME, organism-based; conditions: read-out: Drug uptake
[19] = Ratio of drug level in Wistar rat brain to plasma at 10 mg/kg, sc; type: ADME, organism-based; conditions: read-out: BPR
Mus musculus = assay: Cognitive enhancing effect in C57Bl/6 mouse at 3 and 10 mg/kg, sc administered 30 mins prior to training measured after 24 hrs by novel recognition assay; type: functional, organism-based
[20] = target: Voltage-gated inwardly rectifying potassium channel KCNH2 (Homo sapiens, UniProt Q12809); assay: Inhibition of human ERG by patch clamp assay
Chain of Voltage-gated inwardly rectifying potassium channel KCNH2 (Q12809 whole entry): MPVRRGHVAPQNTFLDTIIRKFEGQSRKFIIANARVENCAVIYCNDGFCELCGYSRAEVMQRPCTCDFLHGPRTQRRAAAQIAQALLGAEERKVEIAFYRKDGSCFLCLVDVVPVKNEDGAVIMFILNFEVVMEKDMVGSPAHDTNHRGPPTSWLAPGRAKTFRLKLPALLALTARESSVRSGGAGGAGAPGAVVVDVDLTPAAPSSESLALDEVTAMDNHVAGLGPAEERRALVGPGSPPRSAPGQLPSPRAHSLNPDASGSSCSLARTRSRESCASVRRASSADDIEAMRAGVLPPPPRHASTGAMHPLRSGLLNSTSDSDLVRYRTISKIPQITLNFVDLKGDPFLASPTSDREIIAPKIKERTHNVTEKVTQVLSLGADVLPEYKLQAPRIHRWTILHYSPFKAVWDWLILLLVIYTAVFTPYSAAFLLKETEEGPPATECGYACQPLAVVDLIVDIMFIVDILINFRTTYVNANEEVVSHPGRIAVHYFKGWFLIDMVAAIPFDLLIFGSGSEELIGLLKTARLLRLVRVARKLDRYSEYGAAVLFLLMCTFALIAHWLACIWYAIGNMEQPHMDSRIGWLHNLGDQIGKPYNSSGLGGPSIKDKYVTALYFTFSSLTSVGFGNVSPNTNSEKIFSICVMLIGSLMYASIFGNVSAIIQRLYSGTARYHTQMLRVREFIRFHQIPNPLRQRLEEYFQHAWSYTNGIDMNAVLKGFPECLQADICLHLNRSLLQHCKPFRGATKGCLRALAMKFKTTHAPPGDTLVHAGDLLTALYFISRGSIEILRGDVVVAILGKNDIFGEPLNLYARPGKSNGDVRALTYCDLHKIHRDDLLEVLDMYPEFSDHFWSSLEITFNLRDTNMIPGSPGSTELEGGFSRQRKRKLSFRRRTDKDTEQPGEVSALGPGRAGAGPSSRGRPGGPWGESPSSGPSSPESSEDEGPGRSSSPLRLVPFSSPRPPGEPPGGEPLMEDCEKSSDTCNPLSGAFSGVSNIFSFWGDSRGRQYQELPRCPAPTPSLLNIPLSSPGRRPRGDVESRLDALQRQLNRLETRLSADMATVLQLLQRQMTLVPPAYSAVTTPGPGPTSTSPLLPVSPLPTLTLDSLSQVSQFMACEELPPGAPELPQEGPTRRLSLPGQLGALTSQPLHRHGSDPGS

5-HT3A = target: T3, 5-HT3A (Homo sapiens, UniProt P46098); assay: Antagonist activity at 5-HT3A (unknown origin) at 10 uM
T3 sequence (P46098 whole entry): T1 sequence (P46098 whole entry)

Structure (SMILES)	IC50 [1] [µM]	Ratio IC50/EC50 [2]	EC50 [4] [nM]	other results
c1ccc(-c2ccnc(NC3=NC[C@@]4(CN5CCC4CC5)O3)c2)cc1	0.085	9 to 9.6	–	–
c1ccc2sc(NC3=NC[C@@]4(CN5CC[C@@H]4C5)O3)nc2c1	0.48	22	22	EC50 [3]: 280 nM
COc1cc2nc(NC3=NCC4(CN5CCC4CC5)O3)sc2cc1OC (configuration not stated)	27	3	11000	–
c1nc2cc(NC3=NCC4(CN5CCC4CC5)O3)ccc2s1 (racemic)	41	13	3100	–
c1ccc2sc(NC3=NC[C@@]4(CN5CCC4CC5)O3)nc2c1	0.021	1	21	–
c1ccc(-c2cnc(NC3=NCC4(CN5CCC4CC5)O3)s2)cc1 (racemic)	20	51 to 750	400	–
COc1cccc2sc(NC3=NCC4(CN5CCC4CC5)O3)nc12 (configuration not stated)	0.013	0.02	830	–
Oc1ccc2nc(NC3=NCC4(CN5CCC4CC5)O3)sc2c1 (configuration not stated)	11	11	980	–
c1ccc2c(NC3=NC[C@@]4(CN5CCC4CC5)O3)nccc2c1	–	–	210	–
c1ccc2sc(NC3=NC[C@]4(CN5CCC4CC5)O3)nc2c1	7.3	6	1300	–
c1ccc2sc(NC3=NCC4(CN5CCC[C@@H]4C5)O3)nc2c1 (mixture of isomers)	0.95	3	290	–
c1ccc(-c2csc(NC3=NCC4(CN5CCC4CC5)O3)n2)cc1 (racemic)	0.011	0.02	450	–
c1csc(NC2=NCC3(CN4CCC3CC4)O2)n1 (racemic)	0.025	0.1	200	EC50 [3]: 1300 nM
c1ccc2sc(NC3=NCC4(CN5CCCC4C5)O3)nc2c1 (racemic)	0.007	< 0.01	700	–
CCOc1ccc2nc(NC3=NCC4(CN5CCC4CC5)O3)sc2c1 (configuration not stated)	14	42	320	–
c1cc(NC2=NCC3(CN4CCC3CC4)O2)ccn1 (racemic)	58	5	11000	–

Structure (SMILES)	IC50 [1] [µM]	Ratio IC50/EC50 [2]	EC50 [4] [nM]	other results
COc1ccc2nc(NC3=NCCC4(CN5CCC4CC5)O3)sc2c1 (configuration not stated)	64	17	3700	–
COc1ccc2nc(NC3=NC4(CO3)CN3CCC4CC3)sc2c1 (configuration not stated)	47	6	7800	–
COc1ccc2nc(NC3=NC[C@@]4(CN5CCC4CC5)O3)sc2c1	9.1	66	140	EC50 [3]: 400 nM; Ratio IC50/EC50 [5]: > 700; Ratio IC50/EC50 [6]: > 700; Ratio IC50/EC50 [7]: > 700; remaining at 10 min [8]: > 60%; remaining at 10 min [9]: > 60%; remaining at 10 min [10]: > 60%; Ki [11]: 38 to 51 nM; EC50 [12]: > 100 µM; EC50 [13]: > 100 µM; EC50 [14]: > 100 µM; clearance [15]: 320 mL/min/kg; bioavailability [16]: 24%; concentration at 0.5 h [17]: 760 nM; concentration at 0.5 h [18]: 5.3 µM; Kp [19]: 7; Activity (Mus musculus): Active; IC50 [20]: 1300 nM
c1ccc2nc(NC3=NC[C@@]4(CN5CCC4CC5)O3)ccc2c1	0.008	0.3	26	–
COc1ccc2nc(NC3=NCC4(CN5CCC4CC5)O3)sc2c1 (configuration not stated)	19	153	120	EC50 [3]: 600 nM
Cc1ccc2nc(NC3=NCC4(CN5CCC4CC5)O3)sc2c1 (configuration not stated)	3.8	32	120	–
COc1ccc2sc(NC3=NCC4(CN5CCC4CC5)O3)nc2c1 (configuration not stated)	0.019	0.02	1100	–
O=C1NC[C@@]2(CN3CCC2CC3)O1	–	–	–	inhibition at 10 µM (5-HT3A): 2.5%
COc1ccc2nc(NC3=NC[C@]4(CN5CCC4CC5)O3)sc2c1	> 97	85	1900	–
c1ccc(NC2=NCC3(CN4CCC3CC4)O2)cc1 (racemic)	0.23	0.04	5400	–
c1ccc2sc(NC3=NCC4(CN5CCC4C5)O3)nc2c1 (racemic)	0.035	0.06	260	–
Clc1ccc2nc(NC3=NCC4(CN5CCC4CC5)O3)sc2c1 (configuration not stated)	8.1	53	150	–
COc1ccc2nc(/N=C3/OC4(CN5CCC4CC5)CN3C)sc2c1 (configuration not stated)	> 100	–	> 100000	–
c1ccc(-c2ccc(NC3=NC[C@@]4(CN5CCC4CC5)O3)nc2)cc1	22	30	750	–
c1ccc2sc(NC3=NCC4(CN5CCC4CC5)O3)nc2c1 (racemic)	0.021 to 0.036	1 to 1.8	20 to 21	EC50 [3]: 500 nM
c1cncc(/N=C2\NCC3(CN4CCC3CC4)O2)c1 (racemic)	2.3	0.1	21000	–
